Assay results from patent US20260027119A1, “INHIBITORS OF CALCIUM/CALMODULIN-DEPENDENT PROTEIN KINASE II AND THEIR USES” (priority 2022, published 2026).

How the values were obtained:
[1] = test system: constitutively active human CaMKIIδ (cardiac isoform); test: High-throughput CaMKAR screen in stable human cell line expressing CaMKAR and constitutively active human CaMKIIδ; type: cell-based
Excerpt: (§1) FIG. 1A, FIG. 1B, FIG. 1C, and FIG. 1D show high-throughput screening to identify CaMKII inhibitors. A stable human cell line that expresses CaMKAR and constitutively active human CaMKIIδ (cardiac isoform) was developed. […] In these cells, the JHDLv3 library, which contains 4,475 compounds that are approved for human use, was screened (FIG. 1B). This primary screen identified 118 candidate compounds, which were subscreened using a CaMKAR in vitro assay (FIG. 1C). Validation of these hits in HEK293 cells and by a third-party laboratory led to five potent inhibitors.
(§2) In some embodiments, the presently disclosed subject matter provides a CaMKII activity biosensor, referred to herein as a CaMKII Activity Reporter (CaMKAR), that is tractable for high-throughput screens. Using this sensor, a library of compounds that are safe for human use (i.e., Food and Drug Administration (FDA)-, European Medicines Agency (EMA)-, China Food and Drug Administration (CFDA)-, and Pharmaceuticals and Medical Devices Agency (PMDA)-approved compounds) was screened for previously unidentified CaMKII inhibitors.

CaMKII [2] = biological target: CaMKII (Homo sapiens, UniProt Q13557); test: CaMKAR in vitro assay (subscreen of primary hits); type: biochemical
Sequence of CaMKII (Homo sapiens, UniProt Q13557) (Q13557 whole entry): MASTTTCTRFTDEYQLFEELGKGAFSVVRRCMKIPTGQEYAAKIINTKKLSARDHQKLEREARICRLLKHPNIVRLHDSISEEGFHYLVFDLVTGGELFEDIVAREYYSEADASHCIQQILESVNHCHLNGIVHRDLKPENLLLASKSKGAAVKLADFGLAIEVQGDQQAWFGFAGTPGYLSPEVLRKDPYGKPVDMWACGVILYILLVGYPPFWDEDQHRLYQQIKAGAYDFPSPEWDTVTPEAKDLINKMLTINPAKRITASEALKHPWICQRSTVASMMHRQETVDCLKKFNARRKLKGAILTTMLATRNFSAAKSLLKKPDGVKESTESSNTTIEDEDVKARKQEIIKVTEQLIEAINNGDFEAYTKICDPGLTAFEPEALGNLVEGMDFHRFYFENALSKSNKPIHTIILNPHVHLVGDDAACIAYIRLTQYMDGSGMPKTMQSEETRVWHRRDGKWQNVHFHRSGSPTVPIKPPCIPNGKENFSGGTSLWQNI
Excerpt: as §1

[3] = test system: constitutively active CaMKIIδ; test: CaMKII inhibition in HEK293 cells expressing constitutively active CaMKIIδ; type: cell-based
Excerpt: as §1

CaMKII [4] = test: CaMKII activation in cardiomyocytes stimulated by field pacing (simulated tachycardia); type: cell-based
Excerpt: FIG. 4A, FIG. 4B, and FIG. 4C show compounds that inhibit CaMKII in cardiomyocytes. CaMKII is stimulated in cardiac cells by simulating tachycardia with field pacing. […] When drug concentration is adjusted to match their respective maximum human plasma concentration, four out of the five compounds were able to ameliorate CaMKII (FIG. 4B, FIG. 4C).
as §2

| SMILES | CaMKII inhibition reported by CaMKAR in primary screen cell line ([1]; stable human cell line expressing CaMKAR and constitutively active human CaMKIIδ) | CaMKII inhibition in CaMKAR in vitro assay (CaMKII [2]) | Inhibition of cardiac CaMKII (CaMKIIδ) in human cells ([1]; human cells) | Potency of CaMKII inhibition relative to tool inhibitor AS100397 [3] | CaMKII activity in rat cardiac cells (CaMKII [4]) |
| --- | --- | --- | --- | --- | --- |
| CN[C@@H]1C[C@H]2O[C@@](C)([C@@H]1OC)n1c3ccccc3c3c4c(c5c6ccccc6n2c5c31)C(=O)NC4 [Staurosporine] | recovered | recovered | – | – | – |
| CCS(=O)(=O)N1CC(CC#N)(n2cc(-c3ncnc4[nH]ccc34)cn2)C1 [Baricitinib] | – | – | potently inhibited | more potent | prevented CaMKII activity |
